# Measurements taken from US9580458B2, “Polymorphic form of sodium hyodeoxycholate (NaHDC) and its preparation process” (PRODOTTI CHIMICI E […].P.A., priority 2013, dated 2017).
# Entries after “also recorded” stand apart in the source; their conditions may differ.
# Assays:
# Type in all cases: physicochemical
# [1] = Dynamic vapour sorption (DVS) analysis in isotherm at 25° C.; conditions: for water still contained at the inflection at about 40% RH in desorption / weight change preserved in desorption up to 50% RH / change in weight in sorption at 20% RH / weight change in sorption at 70% RH / weight change in sorption at 90% RH / weight change at 0% RH in desorption / weight change in sorption at 30% RH: DVS isotherm 25° C.; for water still contained at the inflection at about 40% RH in desorption: about 40% RH (corresponds to about 4 water molecules); for weight change preserved in desorption up to 50% RH: stable up to 50% RH (corresponds to about 8 water molecules)
# Protocol: (§1) To check the stability of the samples DVS (Dynamic vapour sorption) measurements were made using the DVS Intrinsic SMS instrument. The weight change of the sample associated with the change in humidity in a chamber at constant temperature was determined. Each sample was weighed in a range from […], with mass change equal to ±150 mg and mass resolution equal to ±0.1 μg, and positioned in the instrument and analysed at 25° C.±0.1 and 40° C.±0.1 in a relative humidity range comprised between 0% RH and 90% RH with increments of 10% RH, accuracy equal to ±1% RH. Moreover, the sample is brought from 0-90-0% RH with stages of 10% RH. The duration of these stages is as a function of the stabilization of the weight: if the weight change remains less than 0.002 dm (%)/dt (min) for 10 min, it goes on to the next stage. However, the stabilization for each stage cannot last more than 6 hours and in that case the instrument passes on to the next stage. The last stage contemplates the stabilization of the sample at 0% RH for 4 hours.
# In order to verify the stability of the samples DVS (Dynamic vapour sorption) measurements were carried out using the DVS Intrinsic SMS instrument. The weight change of the sample associated with the change in humidity in a chamber at constant temperature was determined. Each sample was positioned in the instrument and analysed at 25° C.±0.1 in a humidity range that ranges from 0% to 90% RH with increments of 10% RH, RH accuracy equal to ±1% RH. The sample is stabilized at 0% RH for 4 hours. The duration of the single stages is as a function of the stabilization of the weight: if the weight change remains less than 0.002 dm (%)/dt (min) for 10 min, it goes on to the next stage. The stabilization cannot last more than 6 hours and in that case it passes on to the next stage. The last stage contemplates the stabilization of the sample at 0% RH for 4 hours.
# (§2) To check the stability of the samples DVS (Dynamic vapour sorption) measurements were made using the DVS Intrinsic SMS instrument. The weight change of the sample associated with the change in humidity in a chamber at constant temperature was determined. Each sample was positioned in the instrument and analysed at 25° C.±0.1 in a humidity range from 0% RH to 90% RH with increments of 10% RH, accuracy equal to ±1% RH. The sample is stabilized at 0% RH for 4 hours. The duration of the single stages is as a function of the stabilization of the weight: if the weight change remains less than 0.002 dm (%)/dt (min) for 10 min, it goes on to the next stage. The stabilization cannot last more than 6 hours and in that case it passes on to the next stage. The last stage contemplates the stabilization of the sample at 0% RH for 4 hours.
# [2] = Thermal stability by DSC and XPRD at variable temperature; conditions: for temperature up to which the form is stable: DSC / XPRD at variable temperature
# Protocol: The thermal properties of the polymorphic forms described were obtained through differential scanning calorimetry (DSC). The DSC profiles were obtained with a heat flow instrument DSC 200 F3 Maia® (Netzsch). The DSC 200 F3 Maia® instrument was calibrated for temperature and enthalpy with an indium standard (melting point: 156.6° C.; ΔHf=28.45 Jg^−1). The samples were analysed according to the following conditions: • temperature range: 25-350° C.; • heating rate: 10° C./min; • sample-holder: perforated aluminium crucible; • gas: anhydrous nitrogen at a flow rate of 60 mL/min.
# In order to determine the X-ray powder diffraction profiles (XPRD) a diffractometer Panalytical X'Pert Pro equipped with detector X'Celerator and X-ray tube (PW3373/00 Cu LFF DK312503) with current intensity 40 mA and voltage 40 kV was used. The instrument was calibrated with a silicon powder standard PANalytical640. The sample was positioned on a glass sample-carrier and analysed using the following parameters: • Scanning range(°): 3.0010-39.9997 • Data acquisition range(°): 0.0167 • Scanning mode: Continuous • Counter time (s): 12,700 • soller slits (rad): 0.04 • divergence slits: ¼ • anti-scatter slits: ½
# [3] = Reprecipitation of FI/FII 1:1 (w/w) in ethyl acetate, 48 hours at 25° C., XPRD of the solid
# Protocol: Into a 2 liter jacketed reactor 1000 ml of ethyl acetate (EtOAc) is loaded, the mechanical stirrer is actuated setting the rate to 200 rpm and then 25 g of polymorphic form FI and 25 g of polymorphic form FII are slowly added. It is left under stirring for 48 hours at a temperature of 25° C.
# It is filtered on buckner and the white solid obtained is washed with 50 ml of EtOAc (1 Volume with respect to the loaded total dry solid NaHDC polymorphic form FI and NaHDC polymorphic form FII).
# [4] = Dynamic vapour sorption (DVS) analysis in isotherm at 40° C.; conditions: DVS isotherm 40° C.
# Protocol: as §1
# as §2, with “Each sample is positioned in” for “Each sample was positioned in”, “analysed at 40° C.±0.1 in” for “analysed at 25° C.±0.1 in”, “from 0% to 90%” for “from 0% RH to 90%”, “10% RH, RH accuracy equal” for “10% RH, accuracy equal”, “of the weight, if the” for “of the weight: if the”
# [5] = Stability of the polymorphic form in the formulation of a medicinal product; conditions: inserted into the formulation of a medicinal product
# [6] = Stability tests according to guidelines ICH Q1A at 25° C./60% RH and 40° C./75% RH
# [7] = listed as mixture of forms of NaHDC
SMILES,water still contained at the inflection at about 40% RH in desorption [1],weight change preserved in desorption up to 50% RH [1],weight change in sorption at 90% RH [1],weight change at 0% RH in desorption [1],weight change in sorption at 30% RH [1],weight change in sorption at 70% RH [1],temperature up to which the form is stable [2] [°C],weight change at 0% RH in desorption ([4]; desorption),weight change in sorption at 70% RH ([4]; sorption),weight change in sorption at 90% RH ([4]; sorption),further results
"C[C@H](CCC(=O)[O-])[C@H]1CC[C@H]2[C@@H]3C[C@H](O)[C@@H]4C[C@H](O)CC[C@]4(C)[C@H]3CC[C@]12C.[Na+] [NaHDC mixture, sodium 3α,6α-dihydroxy-5β,-cholan-24-oate]",about 18%,about 34%,about 35%,–,–,–,–,–,–,–,"water still contained at the inflection at about 40% RH in desorption [1, 7]: about 18%; change in weight in sorption at 20% RH [1]: about 3%; change in weight in sorption at 20% RH [1, 7]: about 3%; weight change in sorption at 70% RH [1, 7]: 15%"
"C[C@H](CCC(=O)[O-])[C@H]1CC[C@H]2[C@@H]3C[C@H](O)[C@@H]4C[C@H](O)CC[C@]4(C)[C@H]3CC[C@]12C.[Na+] [amorphous form of NaHDC, sodium 3α,6α-dihydroxy-5β,-cholan-24-oate]",about 17%,about 34%,about 35%,weight that is less than the starting weight,about 6%,22%,–,–,–,–,–
"C[C@H](CCC(=O)[O-])[C@H]1CC[C@H]2[C@@H]3C[C@H](O)[C@@H]4C[C@H](O)CC[C@]4(C)[C@H]3CC[C@]12C.[Na+] [polymorphic form FI, sodium 3α,6α-dihydroxy-5β,-cholan-24-oate]",about 18%,about 34%,about 35%,zero,about 2%,–,280,zero,8%,about 43%,"interconversion of the polymorphic form on reprecipitation ([3]; FI and FII 1:1 weight/weight, ethyl acetate, 48 hours, room temperature (20-25° C.)): completely converts into the polymorphic form FII; also recorded: interconverts into the polymorphic form FII; change in weight at the plateau at 50-40% RH in desorption ([4]; desorption, 50-40% RH): about 17%; weight change in sorption at 30% RH ([4]; sorption, 30% RH): about 2%"
"C[C@H](CCC(=O)[O-])[C@H]1CC[C@H]2[C@@H]3C[C@H](O)[C@@H]4C[C@H](O)CC[C@]4(C)[C@H]3CC[C@]12C.[Na+] [polymorphic form FII, sodium 3α,6α-dihydroxy-5β,-cholan-24-oate]",about 18%,about 34%,about 35%,zero,–,less than 2%,260,about 6%,less than 2%,about 45%,"temperature of conversion into the polymorphic form FI on heating ([2]; heating, solid-solid conversion into form FI): 280 °C; stability over time in the formulation (interconversion into other polymorphic forms) [5]: stable over time; thermodynamic stability among the forms ([3]; room temperature): most thermodynamically stable one at room temperature and up to 260 °C; also recorded: most thermodynamically stable form at room temperature; stability with regard to humidity in ICH Q1A tests [6]: surprising and unforeseeable stability with regard to humidity both at 25 °C and at 40 °C; hygroscopic behaviour ([1]; humidity sorption cycle in isotherm at 25° C. and at 40° C. (FIGS. 10-13, 27, 28, 58)): non-hygroscopic; shape of the desorption curve at 50-40% RH ([4]; desorption, 50-40% RH): plateau; relative humidity up to which the sample is stable in sorption ([4]; sorption): about 70 % RH"
